How the values were obtained:
[1] = target: T1, recombinant OVGP1 (buffalo oviduct-specific glycoprotein) (Bubalus bubalis, UniProt A4Z8Y1); experiment: intrinsic Trp fluorescence quenching (ex […] nm); type: binding; details: 10 uM protein, 5-15 mM ligand, 25 mM phosphate buffered saline, pH 7.2, 298 K
T1 construct: gene OVN; recombinant from Escherichia coli, ~58 kDa
T1 sequence (A4Z8Y1 22-540): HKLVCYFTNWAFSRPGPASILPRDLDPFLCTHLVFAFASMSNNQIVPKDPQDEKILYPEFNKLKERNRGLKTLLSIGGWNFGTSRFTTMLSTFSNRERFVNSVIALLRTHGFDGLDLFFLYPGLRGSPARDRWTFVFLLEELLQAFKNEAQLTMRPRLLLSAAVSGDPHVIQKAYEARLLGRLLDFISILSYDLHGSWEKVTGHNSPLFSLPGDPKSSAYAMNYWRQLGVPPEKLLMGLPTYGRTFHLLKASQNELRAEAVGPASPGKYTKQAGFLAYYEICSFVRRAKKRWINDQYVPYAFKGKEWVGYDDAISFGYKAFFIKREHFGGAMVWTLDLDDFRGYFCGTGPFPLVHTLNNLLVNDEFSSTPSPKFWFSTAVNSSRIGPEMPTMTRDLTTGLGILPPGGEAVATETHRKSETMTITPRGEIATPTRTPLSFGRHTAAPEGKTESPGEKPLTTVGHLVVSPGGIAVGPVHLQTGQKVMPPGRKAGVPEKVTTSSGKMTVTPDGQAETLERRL

[2] = target: T2, native OVGP1 (buffalo oviduct-specific glycoprotein) (Bubalus bubalis, UniProt A4Z8Y1); experiment: intrinsic Trp fluorescence quenching (ex […] nm); type: binding; details: 10 uM protein, 5-15 mM ligand, 25 mM phosphate buffered saline, pH 7.2, 298 K
T2 construct: gene OVN; native, purified to homogeneity from buffalo oviducts; ~55-90 kDa; glycosylated; secreted mature form (precursor 540 aa, signal peptide 21 aa); monomer
T2 sequence (A4Z8Y1 22-540): T1 sequence (A4Z8Y1 22-540)

Compound | intrinsic Trp fluorescence quenching (ex 280 nm) [1] | intrinsic Trp fluorescence quenching (ex 280 nm) [2]
CC(=O)N[C@H]1C(O)O[C@H](CO)[C@H](O)[C@@H]1O (stereo partly drawn) [GalNAc] | monosaccharides i.e. GlcNAc, GalNAc and mannose complexes of both native and recombinant OVGP1 | monosaccharides i.e. GlcNAc, GalNAc and mannose complexes of both native and recombinant OVGP1
CC(=O)N[C@H]1C(O)O[C@H](CO)[C@@H](O)[C@@H]1O (stereo partly drawn) [GlcNAc] | fluorescence intensity of both native and recombinant OVGP1 decreased with increasing concentrations of ligands | fluorescence intensity of both native and recombinant OVGP1 decreased with increasing concentrations of ligands
OC[C@H]1OC(O)[C@@H](O)[C@@H](O)[C@@H]1O (stereo partly drawn) [mannose] | monosaccharides i.e. GlcNAc, GalNAc and mannose complexes of both native and recombinant OVGP1 | monosaccharides i.e. GlcNAc, GalNAc and mannose complexes of both native and recombinant OVGP1
